The record followed here is patent publication US8822464B2, “N-aryl-piperazine derivatives and their use as positive allosteric modulators of mGluR5 receptors” (Boehringer Ingelheim International GmbH, priority 2011, dated 2014).

The EC50 is the concentration that produces a half-maximal response.

T1 sequence (P41594 21-1212): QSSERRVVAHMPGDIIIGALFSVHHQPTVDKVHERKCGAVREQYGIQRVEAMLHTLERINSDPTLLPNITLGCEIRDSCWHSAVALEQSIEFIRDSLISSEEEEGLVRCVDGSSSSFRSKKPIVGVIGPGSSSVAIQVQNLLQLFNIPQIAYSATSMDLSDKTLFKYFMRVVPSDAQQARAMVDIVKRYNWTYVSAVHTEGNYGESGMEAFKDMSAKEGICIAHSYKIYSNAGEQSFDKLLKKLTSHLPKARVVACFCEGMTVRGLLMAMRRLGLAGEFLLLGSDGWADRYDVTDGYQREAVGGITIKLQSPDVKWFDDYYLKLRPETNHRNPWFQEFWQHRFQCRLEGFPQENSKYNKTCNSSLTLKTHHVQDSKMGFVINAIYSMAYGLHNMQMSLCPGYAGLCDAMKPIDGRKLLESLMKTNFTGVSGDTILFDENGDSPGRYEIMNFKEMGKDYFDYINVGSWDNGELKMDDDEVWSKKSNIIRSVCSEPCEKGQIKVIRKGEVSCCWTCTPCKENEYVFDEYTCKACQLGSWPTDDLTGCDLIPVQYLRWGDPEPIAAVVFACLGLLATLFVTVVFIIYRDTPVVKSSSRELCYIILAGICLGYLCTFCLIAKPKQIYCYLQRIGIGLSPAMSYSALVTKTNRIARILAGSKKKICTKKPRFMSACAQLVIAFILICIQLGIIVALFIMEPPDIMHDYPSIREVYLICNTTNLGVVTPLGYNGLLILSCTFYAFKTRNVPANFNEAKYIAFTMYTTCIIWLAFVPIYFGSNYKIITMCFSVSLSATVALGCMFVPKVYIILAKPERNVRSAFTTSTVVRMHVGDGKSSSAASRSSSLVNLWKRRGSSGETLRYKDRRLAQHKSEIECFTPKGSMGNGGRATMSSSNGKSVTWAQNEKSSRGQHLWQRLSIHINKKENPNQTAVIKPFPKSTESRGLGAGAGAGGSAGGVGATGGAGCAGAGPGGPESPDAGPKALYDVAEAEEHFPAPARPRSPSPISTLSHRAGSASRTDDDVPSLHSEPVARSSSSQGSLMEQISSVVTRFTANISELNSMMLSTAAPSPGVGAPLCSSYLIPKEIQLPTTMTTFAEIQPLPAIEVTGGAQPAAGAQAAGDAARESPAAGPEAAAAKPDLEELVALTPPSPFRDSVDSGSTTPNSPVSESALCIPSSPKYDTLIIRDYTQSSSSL

This test concerns the target T1, human recombinant mGluR5 (Homo sapiens, UniProt P41594).
T1 construct: expressed in transfected cells; host or cells: HEK 293 cell line; cultured with tetracycline, hygromycin and geneticin; tetracycline withdrawn 3-7 days before the assay
The test can be described thus: positive modulation of mGluR5, calcium based FLIPR assay in HEK 293 cells. The following applies: HEK 293 cell line expressing human recombinant mGluR5; peak height of Ca release fluorescence signal after glutamate at approximately 5% basal stimulation; nonlinear regression. In a few lines: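 HEK 293 cells expressing human mGluR5, tetracycline-free 3-7 days, Calcium-4 dye-loaded in Ringer solution pH 7.4; 1% DMSO final. Compound added 5 min before glutamate at ~5% of maximal effect; peak Ca2+ fluorescence normalized to basal glutamate (100%) and 10 μM CDPPB (200%); EC50 by nonlinear regression.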
As to `CCc1cc(-c2cccc(C)c2)nn1CC(=O)N1CCN(c2ccccn2)CC1` [Example 7.01.95], the concentration for a half-maximal effect (EC50) turned out to be 237 nM.

`CCc1cc(-c2cccc(Cl)c2)nn1CC(=O)N1CCN(c2ncccn2)CC1` [Example 7.01.113]: the concentration giving a half-maximal response (EC50) was found to be 94 nM. The figure for `COc1ccnc(N2CCN(C(=O)Cn3nc(-c4ccc(F)c(C)c4)cc3C(C)C)CC2)c1` [Example 7.01.25] is 112 nM; for `CCc1cccc(-c2cc(CC)n(CC(=O)N3CCN(c4ncc(F)cn4)CC3)n2)c1` [Example 7.01.130] it is 471 nM; for `O=C(Cn1nc(-c2ccc(F)cc2)cc1-c1ccc(F)cc1)N1CCN(c2ccccn2)CC1` [Example 7.01.15] it is 30 nM. As for `CCc1cc(-c2cccc(C#N)c2)nn1CC(=O)N1CCN(c2cc(OC)ncn2)CC1` [Example 7.01.163], the half-maximal effective concentration (EC50) worked out at 490 nM. The figure for `N#Cc1cccc(-c2cc(-c3ccccc3)n(CC(=O)N3CCN(c4ncccn4)CC3)n2)c1` [Example 7.01.167] is 7 nM. For `Cc1ccnc(N2CCN(C(=O)Cn3nc(-c4ccc(F)c(C)c4)cc3C3CCCCC3)CC2)c1` [Example 7.01.33], the EC50 was determined as 161 nM. In the case of `CCc1cc(-c2ccc(F)c(C)c2)nn1CC(=O)N1CCN(c2cc(OC)ncn2)CC1` [Example 7.01.67] it was 61 nM. In the case of `COc1ccc(-c2cc(C(C)C)n(CC(=O)N3CCN(c4ccccn4)CC3)n2)cc1` [Example 7.01.20] it was 183 nM; in that of `COc1cc(N2CCN(C(=O)Cn3nc(-c4ccc(F)cc4)cc3C(C)C)CC2)ncn1` [Example 7.01.88], 366 nM. In the case of `CCc1cc(-c2ccc(C)c(F)c2)nn1CC(=O)N1CCN(c2ncccn2)CC1` [Example 7.01.181] it was 130 nM; in that of `CCc1cc(-c2ccc(F)cc2)nn1CC(=O)N1CCN(c2ncc(F)cn2)CC1` [Example 7.01.78], 723 nM.

Consider `Cc1ccc(-c2cc(-c3ccccc3)n(CC(=O)N3CCN(c4ccccn4)CC3)n2)cc1C` [Example 7.01.102], for which the EC50 turned out to be 20 nM.

For the molecule `CCc1cc(-c2ccc(C)c(C)c2)nn1CC(=O)N1CCN(c2cc(OC)ccn2)CC1` [Example 7.01.92], the concentration giving a half-maximal response (EC50) stood at 302 nM.

In the case of `Cc1cc(-c2cc(-c3ccccc3)n(CC(=O)N3CCN(c4cc(OCC(C)O)ncn4)CC3)n2)ccc1F` (stereo not drawn) [Example 7.05.02], the half-maximal effective concentration (EC50) came to 38 nM. On to `COc1cnc(N2CCN(C(=O)Cn3nc(-c4ccc(F)cc4)cc3C(C)C)CC2)nc1` [Example 7.01.89], for which the concentration giving a half-maximal response (EC50) was found to be 577 nM.

For `O=C(Cn1nc(-c2ccccc2)cc1-c1ccccc1)N1CCN(c2ncncn2)CC1` [Example 7.02.14], the concentration for a half-maximal effect (EC50) is 129 nM. The figure for `O=C(Cn1nc(-c2ccccc2)cc1-c1ccccc1)N1CCN(c2cnccn2)CC1` [Example 7.02.05] is 85 nM.

`O=C(Cn1nc(-c2ccc(OC(F)F)cn2)cc1-c1ccccc1)N1CCN(c2ccccn2)CC1` [Example 7.01.179]: the EC50 was found to be 46 nM. As for `CCc1cc(-c2ccc(C)c(C)c2)nn1CC(=O)N1CCN(c2ncc(OC)cn2)CC1` [Example 7.01.99], the EC50 is 129 nM. Turning to `Cc1nc(-c2cc(-c3ccccc3)n(CC(=O)N3CCN(c4ccccn4)CC3)n2)ccc1F` [Example 7.01.155], the EC50 is 24 nM.

Regarding `COc1ccc(-c2cc(C(C)C)n(CC(=O)N3CCN(c4ccccn4)CC3)n2)cc1C` [Example 7.01.56], the EC50 is 393 nM. The figure for `Cc1ccnc(N2CCN(C(=O)Cn3nc(-c4ccc(F)c(C)c4)cc3C3CC3)CC2)c1` [Example 7.01.44] is 176 nM; for `CCc1cc(-c2ccc(C)c(F)c2)nn1CC(=O)N1CCN(c2cc(OC)ncn2)CC1` [Example 7.01.183] it is 318 nM. `COc1cc(N2CCN(C(=O)Cn3nc(-c4ccc(F)cn4)cc3-c3ccccc3)CC2)ncn1` [Example 7.01.61]: the EC50 turned out to be 246 nM. As for `Cc1cc(-c2cc(CC(C)C)n(CC(=O)N3CCN(c4ncccn4)CC3)n2)ccc1F` [Example 7.01.118], the concentration for a half-maximal effect (EC50) is 18 nM. As for `O=C(Cn1nc(-c2ccccc2)cc1-c1ccc(F)cn1)N1CCN(c2ncccn2)CC1` [Example 7.01.66], the EC50 worked out at 957 nM. The figure for `CCc1cc(-c2cccc(Cl)c2)nn1CC(=O)N1CCN(c2ncc(OC)cn2)CC1` [Example 7.01.115] is 65 nM; for `CCc1cccc(-c2cc(CC)n(CC(=O)N3CCN(c4ncc(OC)cn4)CC3)n2)c1` [Example 7.01.132] it is 138 nM; for `Cc1cc(-c2cc(-c3ccccc3)n(CC(=O)N3CCN(c4ncccn4)CC3)n2)ccc1F` [Example 7.01.01, 2-(3-(4-Fluoro-3-methyl-phenyl)-5-phenyl-pyrazol-1-yl)-1-(4-(2-pyrimidinyl)-1-piperazinyl)-ethanon] it is 6 nM. Turning to `Cc1nc(-c2cc(-c3ccccc3)n(CC(=O)N3CCN(c4ncccn4)CC3)n2)ccc1F` [Example 7.01.154], the EC50 came out at 11 nM.

Regarding `COc1cc(N2CCN(C(=O)Cn3nc(-c4ccc(F)c(OC)c4)cc3C(C)C)CC2)ncn1` [Example 7.01.47], the EC50 stood at 447 nM. For `COc1cnnc(N2CCN(C(=O)Cn3nc(-c4ccc(F)c(C)c4)cc3C(C)C)CC2)c1` [Example 7.01.30], the EC50 worked out at 987 nM. For the molecule `Cc1cnc(-c2cc(-c3ccccc3)nn2CC(=O)N2CCN(c3ncccn3)CC2)cc1C` [Example 7.01.134], the EC50 was found to be 865 nM. In the case of `COc1ccc(-c2cc(C(C)C)n(CC(=O)N3CCN(c4ncccn4)CC3)n2)cc1` [Example 7.01.19] it was 86 nM. The figure for `Cc1cc(-c2cc(C3CCCCC3)n(CC(=O)N3CCN(c4cccnn4)CC3)n2)ccc1F` [Example 7.01.38] is 100 nM. In the case of `COc1cnc(N2CCN(C(=O)Cn3nc(-c4ccc(F)c(C)c4)cc3CC(C)C)CC2)nc1` [Example 7.01.123] it was 36 nM; in that of `O=C(Cn1nc(-c2ccc(F)cn2)cc1-c1ccccc1)N1CCN(c2ncccn2)CC1` [Example 7.01.57], 81 nM. Consider `COc1cc(N2CCN(C(=O)Cn3nc(-c4ccc(OC(F)F)cc4)cc3-c3ccccc3)CC2)ncn1` [Example 7.01.176], for which the EC50 was found to be 10 nM.

On to `Cc1cc(-c2cc(-c3ccccc3)n(CC(=O)N3CCN(c4ccccn4)CC3)n2)ncc1F` [Example 7.01.158], for which the EC50 was 79 nM. The figure for `Cc1ccc(-c2cc(-c3ccccc3)n(CC(=O)N3CCN(c4ncccn4)CC3)n2)nc1C` [Example 7.01.124] is 8 nM. Regarding `O=C(Cn1nc(-c2cccc(Cl)c2)cc1-c1ccccc1)N1CCN(c2ncccn2)CC1` [Example 7.01.149], the EC50 was 12 nM. In the case of `O=C(Cn1nc(-c2ccccc2)cc1-c1ccccc1)N1CCN(c2cccnc2)CC1` [Example 7.02.06] it was 581 nM; in that of `Cc1ccnc(N2CCN(C(=O)Cn3nc(-c4ccc(F)c(C)c4)cc3C(C)C)CC2)c1` [Example 7.01.24], 79 nM; in that of `CCc1cc(-c2cccc(C)c2)nn1CC(=O)N1CCN(c2ncccn2)CC1` [Example 7.01.94], 136 nM.

With `O=C(Cn1nc(-c2ccccc2)cc1-c1ccccc1)N1CCN(c2cc(C(F)(F)F)ccn2)CC1` [Example 7.02.13], the concentration for a half-maximal effect (EC50) was 696 nM. As for `CCc1cccc(-c2cc(CC)n(CC(=O)N3CCN(c4ccccn4)CC3)n2)c1` [Example 7.01.128], the EC50 is 204 nM. Regarding `CCc1cc(-c2cccc(C#N)c2)nn1CC(=O)N1CCN(c2ccccn2)CC1` [Example 7.01.161], the EC50 was found to be 297 nM. In the case of `Cc1cc(-c2cc(C3CCCCC3)n(CC(=O)N3CCN(c4ccccn4)CC3)n2)ccc1F` [Example 7.01.35] it was 213 nM; in that of `O=C(Cn1nc(-c2ccccc2)cc1-c1ccccc1)N1CCN(c2ccccn2)CC1` [Example 7.02.03], 29 nM.
